Reference: BindingDB's records for doi:10.1021/acs.jmedchem.8b00890 (Beijing Institute of Pharmacology and Toxicology, 2018)
Where a SMILES comes first, the peptide text is derived from it. [ ]: non-standard residue; d: D form. The star is where a group is joined. Palmitoyl = CCCCCCCCCCCCCCCC(=O)*; βAla = NCCC(=O)O

What was measured:
[1] = Inhibition of Ebola virus Sudan envelope glycoprotein-mediated cell entry in human HuH7 cells treated with 30 mins pre-treated pseudovirus/compopund mixture and measured after 72 hrs by luciferase reporter assay
[2] = Inhibition of HIV1 envelope glycoprotein-mediated cell-cell fusion between HL2/3 cells stably expressing HIV Gag, Env, Tat, Rev and Nef proteins and human TZM-bl cells stably expressing high CD4 and CCR5 incubated for 6 to 8 hrs by luciferase reporter assay

CCCCCCCCCCCCCCCC(=O)NCCCC[C@H](NC(=O)CCNC(=O)[C@H](CCCCN)NC(=O)[C@H](CCCCN)NC(=O)[C@H](CCC(N)=O)NC(=O)[C@@H](NC(=O)[C@H](CCC(=O)O)NC(=O)[C@H](CCC(=O)O)NC(=O)[C@@H](NC(=O)[C@H](CCCCN)NC(=O)[C@H](CCCCN)NC(=O)[C@H](CCC(N)=O)NC(=O)[C@@H](NC(=O)[C@H](CCC(=O)O)NC(=O)[C@H](CCC(=O)O)NC(=O)[C@@H](NC(=O)[C@H](CCCCN)NC(=O)[C@H](CCCCN)NC(=O)[C@H](CCC(N)=O)NC(=O)[C@@H](NC(=O)[C@H](CCC(=O)O)NC(=O)[C@H](CCC(=O)O)NC(=O)[C@@H](NC(=O)[C@H](CCCCN)NC(=O)[C@H](CCCCN)NC(=O)[C@H](CCC(N)=O)NC(=O)[C@@H](NC(=O)[C@H](CCC(=O)O)NC(=O)[C@H](CCC(=O)O)NC(=O)[C@@H](NC(=O)[C@H](CCCCN)NC(=O)[C@H](CCCCN)NC(=O)[C@H](CCC(N)=O)NC(=O)[C@@H](NC(=O)[C@H](CCC(=O)O)NC(=O)[C@H](CCC(=O)O)NC(=O)[C@@H](NC(C)=O)[C@@H](C)CC)[C@@H](C)CC)[C@@H](C)CC)[C@@H](C)CC)[C@@H](C)CC)[C@@H](C)CC)[C@@H](C)CC)[C@@H](C)CC)[C@@H](C)CC)[C@@H](C)CC)C(N)=O (Ac-IEEIQKKIEEIQKKIEEIQKKIEEIQKKIEEIQKK[βAla]K(Palmitoyl)-NH2)
EC50 [1]: 1.02 µM
EC50 [2]: 3.63 µM
